Assays:
sickle cell disease = system: sickle cell disease
Text: The patient was a person with sickle cell disease characterized by diffuse pain involving the spine, long bones and abdomen; an elevated serum bilirubin and leukocytosis (the former indicating at least temporary liver damage due to the disease); a reticulocyte count of about 15% (indicating formation of new red blood cells) and a hematocrit of 24-30% (below the normal level of 43-45%). Prior treatment included i.v. hydration, transfusion with packed red blood cells and i.v. narcotics to manage the pain.
Because of the increasing frequency and severity of sickling crises, they were treated with desmopressin to induce a state of chronic hypo-osmolalityof body fluids by combination with increasd oral fluid administration.

[1] = in vivo; cited from earlier work
[2] = desmopressin 40 mcg intranasally every 6 hours + hydrochlorothiazide 100 mg daily, fluid intake 4.3±0.15 l/day

Row | SMILES | pain and jaundice after regimen re-instated (sickle cell disease; after crisis signs on withdrawal) | period free of any signs or symptoms of sickle cell crisis (sickle cell disease; after re-instatement of the regimen) | serum Na after regimen re-instated (sickle cell disease; decreased from 142 mM after re-instatement of desmopressin regimen) | serum Na level at plateau (sickle cell disease; [2]) | urine osmolality at plateau (sickle cell disease; [2]) | time free of any signs of crisis (sickle cell disease; first period on the regimen) | untoward side-effects of the induced hyponatremia (nausea, cramps, disturbances in central nervous function) (sickle cell disease; human, in vivo) | vascular or non-vascular smooth muscle side effects [1] | effect on attainment of hyponatremic state (sickle cell disease; 100 mg daily, added to desmopressin and fluid intake of 4-5 l. daily)
1 | NC(=O)CC[C@@H]1NC(=O)[C@H](Cc2ccccc2)NC(=O)[C@H](Cc2ccc(O)cc2)NC(=O)CCSSC[C@@H](C(=O)N2CCC[C@H]2C(=O)N[C@H](CCCN=C(N)N)C(=O)NCC(N)=O)NC(=O)[C@H](CC(N)=O)NC1=O [desmopressin, 1-deamino-8-D-arginine vasopressin] | pain and jaundice abated | 6 months | 127 mM | 125 mM | 344±13 m Osm/kg | 54 days | has not been associated with untoward side-effects | devoid of vascular or non-vascular smooth muscle side effects | 
2 | NS(=O)(=O)c1cc2c(cc1Cl)NCNS2(=O)=O [Hydrochlorothiazide] |  |  |  |  |  |  |  |  | facilitated the attainment of a hyponatremic state

Reference: patent US4263283A, “Method for prophylaxis and/or treatment of sickle cell disease” (Ferring Pharmaceuticals, Inc., priority 1980, dated 1981)
